# Experimental data reported in patent publication US8343983B2, “Substituted pyrazolo-pyrimidine compounds” (ArQule, Inc., priority 2009, dated 2013).
# Where two headings read alike, the source gives them in different places.
# What was measured:
# [1] = system: cancer cells; assay: MTS assay: inhibition of cell growth (formazan absorbance at 492 nm after 72 hours with test compound); type: cell-based; details: inhibition class
# How it was run: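 DMEM with 1% FBS; cells seeded at 3000/well and grown 18 h at 37 °C, then exposed to compound for 72 h and to MTS/PMS for 4 h. IC50 is the concentration giving a 50% absorbance drop; grades are % inhibition bands.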
# [2] = Homo sapiens, DLD-1 cells, read-out: DLD-1, MTS 72 hours at 10 uM
# [3] = Homo sapiens, KATO III cells, read-out: KATO III, MTS 72 hours at 10 uM
# [4] = Homo sapiens, MDA-MB-231 cells, read-out: MDA-MB-231, MTS 72 hours at 10 uM
# [5] = Homo sapiens, NCI-H1299 cells, read-out: NCI-H1299, MTS 72 hours at 10 uM
# [6] = Homo sapiens, PC-3 cells, read-out: PC-3, MTS 72 hours at 10 uM
# [7] = PACA-2 cells, read-out: PACA-2, MTS 72 hours at 10 uM
melting point,SMILES,"inhibition at 10 µM [1, 2]","inhibition at 10 µM [1, 3]","inhibition at 10 µM [1, 4]","inhibition at 10 µM [1, 5]","inhibition at 10 µM [1, 6]","inhibition at 10 µM [1, 7]"
118 to 120 °C,"COc1ccc(CN2CCc3nn(Cc4ccccc4)c4nc(N5CCOCC5)nc2c34)cc1 [Compound 131, 4-(1-benzyl-5-(4-methoxybenzyl)-1,3,4,5-tetrahydro-1,2,5,6,8-pentaazaacenaphthylen-7-yl)morpholine]",,,,,,
,"CN(C)CCN(C)c1nc2c3c(n[nH]c3n1)CCN2Cc1ccccc1 [Compound 23, N-(6-benzyl-2,6,7,8-tetrahydro-1,2,3,5,6-pentaazaacenaphthylen-4-yl)-N,N′,N′-trimethylethane-1,2-diamine]",< 50%,< 50%,50 to 79%,< 50%,> 79%,< 50%
,"CC(O)CNc1nc2c3c(n[nH]c3n1)CCN2Cc1ccccc1 (stereo not shown) [Compound 69, 1-[(6-benzyl-2,6,7,8-tetrahydro-1,2,3,5,6-pentaazaacenaphthylen-4-yl)amino]propan-2-ol]",< 50%,< 50%,< 50%,< 50%,< 50%,< 50%
,"Clc1ccc(CNc2nc3c4c(n[nH]c4n2)CCN3c2ccccc2)cc1 [Compound 213, N-(4-chlorobenzyl)-6-phenyl-2,6,7,8-tetrahydro-1,2,3,5,6-pentaazaacenaphthylen-4-amine]",< 50%,< 50%,< 50%,50 to 79%,< 50%,50 to 79%
,"c1ccc(CN2CCc3n[nH]c4nc(NCCCN5CCOCC5)nc2c34)cc1 [Compound 25, 6-benzyl-N-(3-morpholin-4-ylpropyl)-2,6,7,8-tetrahydro-1,2,3,5,6-pentaazaacenaphthylen-4-amine]",< 50%,< 50%,< 50%,< 50%,< 50%,< 50%
